Reference: article PMC8409457, “An evolution-inspired strategy to design disulfide-rich peptides tolerant to extensive sequence manipulation” (Chemical Science, 2021)
pKi: −log10 of the molar value. Where a SMILES comes first, the peptide text is derived from it. Bridges are numbered along the chain shown (N, C = ends).

Tests used:
[1] = test system: chymotrypsin; assay: Proteolytic stability of peptides toward chymotrypsin; assay type: in vitro ADME; conditions: 100 μM peptide, phosphate buffer 100 mM pH 7.4, 37 °C, HPLC, 0–180 min
Experimental: 1.9 Proteolytic stability of peptides
100 μM 15-Ala, 16-Ala, oxidized 15, and oxidized 16 were respectively treated with phosphate buffer (pH = 7.4, 100 mM) containing chymotrypsin at 37 °C . The chymotrypsin concentration used for the digestion of 15 - Ala and oxidized 15 is 0.3 μ g/mL . The chymotrypsin concentration used for the digestion of 16 - Ala and oxidized 16 is 5.0 μ g/mL . At pred e fined time s , 50 μ L aliqu ots were taken with a pipette , quenched with 70 μ L 10% HPO 3 , and analyzed by HPLC. […]

[2] = target: T1, Bcl-2 (Homo sapiens, UniProt P10415); assay: Surface plasmon resonance (SPR), binding to immobilized Sumo-Bcl-2; conditions: for Binding affinity to Bcl-2 (SPR), in words: SPR sensorgrams, peptide 160–2560 nM
T1 construct: made in house; host or cells: E. coli
T1 sequence (P10415 whole entry, species assumed): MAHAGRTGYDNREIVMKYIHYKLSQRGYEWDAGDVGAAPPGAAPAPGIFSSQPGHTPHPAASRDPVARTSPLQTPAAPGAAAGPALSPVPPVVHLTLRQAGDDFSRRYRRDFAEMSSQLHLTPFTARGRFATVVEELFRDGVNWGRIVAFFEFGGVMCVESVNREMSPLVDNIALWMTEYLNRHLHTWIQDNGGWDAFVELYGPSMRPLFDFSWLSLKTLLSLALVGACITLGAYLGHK
Experimental: (§1) 1.7 Surface plasmon resonance (SPR) assays
(§2) SPR assays were performed using a Biacore T200. Target proteins (Sumo-Bcl-2 and […]
(§3) to reach a target response of 1000 RU. Flow cell Fc3 that was not immobilized with proteins was used as the reference channel. […]

[3] = Thermal denaturation monitored using circular dichroism; assay type: physicochemical; conditions: CD, 50 μM peptide in water, 25–95 °C, ellipticity at 220 nm
Experimental: Circular dichroism (CD) spectra were measured using a 1.0 mm path length cuvette at room temperature (25 ℃). All measured peptides were dissolved in water to reach a concentration of 50
μM. The baseline signal (pure aqueous solution) were subtracted from each spectrum. CD spectra were recorded in a wavelength range of 190 ‒ 260 nm with a bandwidth of 2.0 nm, a date pitch of 1.0 nm, a response time of 8. 0 s, and a scanning speed of 50 nm/min. The thermal denaturation CD spectra were recorded in a temperature range of 25 ‒ 95 ℃ with a heating rate of 10 ℃/min. For temperature melts, the change of ellipticity at 220 nm was monitored as temperature increased f rom 25 to 95 °C in an increment of 10 °C. Other experimental conditions were consistent with those of […]

[4] = target: T2, streptavidin (Streptomyces avidinii, UniProt P22629); assay: Surface plasmon resonance (SPR), binding to immobilized streptavidin; conditions: SPR sensorgrams, peptide 20–320 nM
T2 construct: purchased Biosynthesis Biotechnology (Beijing, China)
T2 sequence (P22629 25-183): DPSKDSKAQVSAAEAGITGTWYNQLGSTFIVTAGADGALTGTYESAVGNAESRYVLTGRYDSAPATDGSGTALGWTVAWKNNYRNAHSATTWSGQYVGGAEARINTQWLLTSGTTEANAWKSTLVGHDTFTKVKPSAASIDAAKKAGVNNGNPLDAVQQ
Experimental: as §1, §2, §3

[5] = target: MDM2 (Homo sapiens, UniProt Q00987); assay: Fluorescence polarization competition assay, binding to MDM2
Sequence of MDM2 (Q00987 whole entry, species assumed): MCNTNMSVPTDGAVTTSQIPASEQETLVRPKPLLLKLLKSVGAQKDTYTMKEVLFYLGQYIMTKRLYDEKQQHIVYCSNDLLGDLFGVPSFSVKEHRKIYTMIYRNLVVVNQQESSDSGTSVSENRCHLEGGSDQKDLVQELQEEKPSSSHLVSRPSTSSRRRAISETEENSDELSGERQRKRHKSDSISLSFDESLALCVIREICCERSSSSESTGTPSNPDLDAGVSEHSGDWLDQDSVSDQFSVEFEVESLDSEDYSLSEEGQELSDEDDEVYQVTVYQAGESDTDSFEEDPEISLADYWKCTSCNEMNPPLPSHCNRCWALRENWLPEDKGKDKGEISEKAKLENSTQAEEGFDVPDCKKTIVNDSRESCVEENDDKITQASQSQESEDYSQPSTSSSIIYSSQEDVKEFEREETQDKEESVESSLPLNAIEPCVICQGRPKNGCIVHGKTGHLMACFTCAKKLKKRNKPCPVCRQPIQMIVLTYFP
Experimental: 1.6 Fluorescence polarization (FP) assays
Infinite® 200 PRO Microplate Reader. […]
data with the single-site binding model. […]
described above, and fluorescence anisotropies were recorded. The Ki value of the binding between […]
been described in our previous reports.1,6
as §1, §2

Compound | Binding affinity to Bcl-2 (SPR), in words [2] | Stability to heat treatment (aggregation) [3] | Binding affinity to streptavidin (SPR), in words [4] | Binding affinity to MDM2 (FP competition), in words [5] | also measured
CC[C@H](C)[C@@H]1NC(=O)[C@@H]2CSSC[C@H](NC(=O)[C@H](CC(C)C)NC(=O)[C@H](CCC(=O)O)NC(=O)[C@@H]3CCCN3C(=O)[C@H](Cc3ccccc3)NC1=O)C(=O)N1CCC[C@H]1C(=O)N[C@@H](Cc1c[nH]c3ccccc13)C(=O)N[C@@H]([C@@H](C)CC)C(=O)N[C@@H](C(C)C)C(=O)N[C@H]1CSSC[C@H](NC(=O)CNC(C)=O)C(=O)N[C@@H](CCC(=O)O)C(=O)N[C@@H](CCCCN)C(=O)N[C@@H](C)C(=O)N[C@@H]([C@@H](C)O)C(=O)N[C@@H](CCC(=O)O)C(=O)N[C@@H](CO)C(=O)N[C@@H](CCC(=O)O)C(=O)N[C@@H](CO)C(=O)N3CCC[C@H]3C(=O)N[C@@H](CSSC[C@@H](C(N)=O)NC1=O)C(=O)N1CCC[C@H]1C(=O)N2 [Oxidized 15] (Ac-GCEKATESESPCPCIFPELCPWIVCC-NH2; disulfide 2-25, 12-26, 14-20) | no binding affinity | no aggregation was observed | no binding affinity |  | Stability toward proteolysis by chymotrypsin compared to linear analog ([1]; chymotrypsin 0.3 μg/mL, versus 15-Ala): significantly more stable
Ac-CGSGSGSGCGCPCIWPELCPWIRSC-NH2 (also: bicyclic or more (positions not given here)) [compound 11, original peptide template of the 11-X14 library] |  |  | no binding affinity |  | 
Ac-GAMILLDTDIWAPASHPYAAPENIAA-NH2 [16-Ala, linear counterpart (Cys-to-Ala mutant) of 16] | negligible affinity |  |  |  | 
CSCC[C@@H]1NC(=O)[C@@H]2CCCN2C(=O)[C@@H]2CSSC[C@H](NC(=O)[C@@H]3CCCN3C(=O)[C@@H](NC(=O)[C@H](Cc3ccccc3)NC(=O)[C@@H]3CSSC[C@H](NC(=O)CNC(C)=O)C(=O)NCC(=O)N[C@@H](CO)C(=O)N[C@@H](CC(=O)O)C(=O)N[C@@H](CCC(=O)O)C(=O)N[C@@H](C)C(=O)N3)CSSC[C@@H](C(N)=O)NC(=O)[C@H](Cc3c[nH]cn3)NC(=O)[C@H](CCC(N)=O)NC(=O)[C@H](C)NC1=O)C(=O)N[C@@H](CO)C(=O)N[C@@H](Cc1c[nH]cn1)C(=O)N1CCC[C@H]1C(=O)N[C@@H](CCC(=O)O)C(=O)N[C@@H](CC(N)=O)C(=O)N2 [compound 17] (Ac-GCGSDEACFCPCSHPENCPMAQHC-NH2; disulfide 2-8, 10-24, 12-18) | negligible binding affinity |  |  | negligible binding affinity | 
CC[C@H](C)[C@@H]1NC(=O)[C@H](Cc2c[nH]c3ccccc23)NC(=O)[C@@H]2CCCN2C(=O)[C@@H]2CSSC[C@H](NC(=O)[C@@H]3CCCN3C(=O)[C@@H]3CSSC[C@@H](C(N)=O)NC(=O)[C@H](CSSC[C@H](NC(C)=O)C(=O)NCC(=O)N[C@@H](CO)C(=O)NCC(=O)N[C@@H](CO)C(=O)NCC(=O)N[C@@H](CO)C(=O)NCC(=O)N[C@@H](CO)C(=O)NCC(=O)N3)NC(=O)[C@H](CCCNC(=N)N)NC1=O)C(=O)N[C@@H]([C@@H](C)CC)C(=O)N[C@@H](Cc1c[nH]c3ccccc13)C(=O)N1CCC[C@H]1C(=O)N[C@@H](CCC(=O)O)C(=O)N[C@@H](CC(C)C)C(=O)N2 [compound 8] (Ac-CGSGSGSGSGCPCIWPELCPWIRCC-NH2; disulfide 1-24, 11-25, 13-19) |  |  |  |  | pKi ([5]; PBS pH 7.4, room temperature, peptides HPLC-purified >95%): 6.79
CC[C@H](C)[C@@H]1NC(=O)[C@H](CC(N)=O)NC(=O)[C@H](CCC(=O)O)NC(=O)[C@@H]2CCCN2C(=O)[C@@H]2CSSC[C@H](NC(=O)[C@@H]3CCCN3C(=O)[C@@H]3CSSC[C@@H](C(N)=O)NC(=O)[C@H](CSSC[C@H](NC(=O)CNC(C)=O)C(=O)N[C@@H](CCSC)C(=O)N[C@@H]([C@@H](C)CC)C(=O)N[C@@H](CC(C)C)C(=O)N[C@@H](CC(C)C)C(=O)N[C@@H](CC(=O)O)C(=O)N[C@@H]([C@@H](C)O)C(=O)N[C@@H](CC(=O)O)C(=O)N[C@@H]([C@@H](C)CC)C(=O)N[C@@H](Cc4c[nH]c5ccccc45)C(=O)N3)NC1=O)C(=O)N[C@@H](CO)C(=O)N[C@@H](Cc1c[nH]cn1)C(=O)N1CCC[C@H]1C(=O)N[C@@H](Cc1ccc(O)cc1)C(=O)N[C@@H](C)C(=O)N2 [Oxidized 16] |  | no aggregation was observed | negligible binding affinity | negligible binding affinity | Stability toward proteolysis by chymotrypsin compared to linear analog ([1]; chymotrypsin 5.0 μg/mL, versus 16-Ala): significantly more stable; kd, binding kinetics with Bcl-2 (SPR) ([2]; Biacore T200, 1:1 binding model, peptide 0.16–2.56 μM): 0.0498 s⁻¹; kon ([2]; read-out: ka, binding kinetics with Bcl-2 (SPR)): 126000 M⁻¹ s⁻¹
